Drawing on patent publication US20230203003A1, “Notch Inhibitors and Uses Thereof” (StemSynergy Therapeutics, Inc., priority 2020, published 2023), this text covers IC50 for 38 compounds.

Counter-ions that a name gives are not always drawn.

For orientation: IC50 means the point on the concentration scale where inhibition reaches its midpoint.

In one experiment the target is T1, hNotch1ICD (Homo sapiens, UniProt P46531).
T1 construct: pLV[Tet]-Puro-TRE3G>Notch1-ICD; expressed in transfected cells; host or cells: 293A cells
T1 sequence (P46531 1754-2555 limits assumed): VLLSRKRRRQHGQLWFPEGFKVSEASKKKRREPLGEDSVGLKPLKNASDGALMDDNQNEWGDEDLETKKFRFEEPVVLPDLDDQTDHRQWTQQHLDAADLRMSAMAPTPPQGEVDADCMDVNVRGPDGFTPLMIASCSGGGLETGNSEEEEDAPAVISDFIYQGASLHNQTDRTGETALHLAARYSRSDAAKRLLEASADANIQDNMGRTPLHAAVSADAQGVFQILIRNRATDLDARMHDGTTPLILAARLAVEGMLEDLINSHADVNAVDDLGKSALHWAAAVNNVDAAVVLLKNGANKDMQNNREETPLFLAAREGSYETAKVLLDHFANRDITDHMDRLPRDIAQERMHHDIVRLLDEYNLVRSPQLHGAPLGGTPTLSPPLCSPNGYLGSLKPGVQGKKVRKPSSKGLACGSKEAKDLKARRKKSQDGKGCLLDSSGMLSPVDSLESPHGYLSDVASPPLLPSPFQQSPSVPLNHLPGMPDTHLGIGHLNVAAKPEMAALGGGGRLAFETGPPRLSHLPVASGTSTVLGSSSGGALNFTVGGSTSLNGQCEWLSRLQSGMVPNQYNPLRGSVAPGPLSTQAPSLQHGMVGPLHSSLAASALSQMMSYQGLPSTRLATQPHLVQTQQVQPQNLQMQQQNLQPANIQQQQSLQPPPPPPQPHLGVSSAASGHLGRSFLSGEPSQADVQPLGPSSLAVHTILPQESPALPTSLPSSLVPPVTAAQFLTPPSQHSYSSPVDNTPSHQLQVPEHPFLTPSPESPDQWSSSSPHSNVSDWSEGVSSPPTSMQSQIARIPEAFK
Put plainly: Notch1 Reporter Assay (Dox-inducible Notch1-ICD, CSL-responsive luciferase in 293A cells). The experiment is classed as cell-based. To be noted: 293A cells, 24 h, luciferase normalized to cell viability; read-out: Notch1 Reporter Assay IC50. The protocol: 293A cells expressing 1) pCMV-Tet-On 3G, 2) pLV[Tet]-Puro-TRE3G>Notch1-ICD, 3) pLV[Tet]-Puro-TRE3G>Notch2-ICD, 4) pLV[Tet]-Puro-TRE3G>Notch3-ICD, and 5) pCSL-RElement-Luc were used. When Doxycycline is added, the Tet-ON gene activates expression of hNotch1ICD, which together with endogenous NTC components binds to CSL responsive elements (pCSL-RElement-Luc) and expresses luciferase. 1 ×× 10^4 cells are plated in 100 µL (96-well format). 24 h later, compounds (10 mM stock in DMSO) are diluted in DMSO to 200X, then added (5 ul into 1 mL) to cell culture media containing 50 ng/mL Dox. This is then added 1:1 to cells. Final DMSO = 0.25%, Dox = 25 ng/mL. After 24 h, media is discarded, and cells are lysed in passive lysis buffer (Promega). Cells are rocked at room temperature for 15 min and then lysate is divided for luciferase assay (Luciferase Assay System, Promega) and cell viability (CellTiter Glo 2.0, Promega). Raw luciferase is normalized to cell viability, and then scaled to DMSO wells. Results are analyzed and IC50′s are determined in GraphPad by nonlinear regression curve fitting (4 parameter) of dose response curves.
Background: A reporter such as luciferase makes a cellular process visible.
In the case of `CC(C)Cn1c(=O)c(C(=O)Nc2ccc(N3CCN(C)CC3)cc2)c(O)c2ccccc21` [569(01)], the IC50 is 8.4 µM.
With `CC(C)Cn1c(=O)c(C(=O)Nc2ccc(F)cc2N2CCN(C)CC2)c(O)c2ccccc21` [570(01)], the IC50 worked out at 6.5 µM.
Turning to `CC(C)Cn1c(=O)c(C(=O)Nc2cccc(F)c2)c(O)c2cc(N3CCN(C)CC3)ccc21` [577(01)], the IC50 was determined as 9.7 µM.
Turning to `Cc1cccnc1NC(=O)c1c(O)c2cc(N3CCN(C)CC3)ccc2n(CC(C)C)c1=O` [579(01)], the concentration for half-maximal inhibition (IC50) was determined as 18.4 µM.
On to `Cc1cccnc1NC(=O)c1c(O)c2ccc(N3CCN(C)CC3)cc2n(CC(C)C)c1=O` [580(01)], for which the IC50 came out at 13.3 µM.
Turning to `Cc1cccnc1NC(=O)c1c(O)c2ccc(N3CCN(C)CC3)cc2n(CC(C)C)c1=O` [580(02)], the IC50 came out at 14 µM.
Consider `CC(C)Cn1c(=O)c(C(=O)Nc2cccc(F)c2N2CCN(C)CC2)c(O)c2ccccc21` [581(01)], for which the IC50 came to 7.8 µM.
Still for that read-out and setting: for `CC(C)Cn1c(=O)c(C(=O)Nc2cccc(F)c2N2CCN(C)CC2)c(O)c2ccccc21` [581(02)] the value was 7.7 µM; for `CC(C)Cn1c(=O)c(C(=O)Nc2cc(F)cc(N3CCN(C)CC3)c2)c(O)c2ccccc21` [583(01)], 8.1 µM.
With `CC(C)Cn1c(=O)c(C(=O)Nc2cc(F)cc(N3CCN(C)CC3)c2)c(O)c2ccccc21` [583(02)], the half-inhibitory concentration (IC50) was 6.3 µM.
On to `CC(C)Cn1c(=O)c(C(=O)Nc2ccc(F)c(N3CCN(C)CC3)c2)c(O)c2ccccc21` [584(01)], for which the concentration for half-maximal inhibition (IC50) came to 4.5 µM.
For the compound `CC(C)Cn1c(=O)c(C(=O)Nc2cccc(F)c2)c(O)c2c(N3CCN(C)CC3)cccc21` [588(01)], the half-maximal inhibitory concentration (IC50) was determined as 10.3 µM.
Same read-out and setting: the figure for `CC(C)Cn1c(=O)c(C(=O)Nc2cccc(F)c2)c(O)c2c(N3CCN(C)CC3)cccc21` [588(02)] is 9.8 µM; for `O=C(Nc1ccccc1)c1c(O)c2c(n(Cc3ccco3)c1=O)CCCC2` [SSTN-379] it is 27.5 µM; for `CCCn1c2c(c(O)c(C(=O)Nc3ccccn3)c1=O)CCCC2` [SSTN-401] it is 21.6 µM.
The same measure, in the same setting: the figure for `O=C(Nc1ncccc1O)c1c(O)c2c([nH]c1=O)CCCC2` [SSTN-402] is 12.1 µM.
With `Cc1ccnc(NC(=O)c2c(O)c3ccccc3n(Cc3ccccc3)c2=O)c1` [SSTN-410], the IC50 was found to be 21.9 µM.
Same read-out and setting: for `O=C(Nc1ccc(F)cc1)c1c(O)c2cccnc2n(-c2ccccc2)c1=O` [SSTN-443] the value was 9 µM; for `CC(C)Cn1c(=O)c(C(=O)Nc2cccc(F)c2)c(O)c2ccc(Br)cc21` [SSTN-567, 7-bromo-N-(3-fluorophenyl)-4-hydroxy-1-isobutyl-2-oxo-1,2-dihydroquinoline-3-carboxamide], 33.2 µM.

Staying with this experiment, now noted: value printed in the synthesis heading of the compound; read-out: Notch1 Reporter Assay IC50.
Take `CC(C)Cn1c(=O)c(C(=O)Nc2ccccc2N2CCN(C)CC2)c(O)c2ccccc21` [SSTN-568, 4-hydroxy-1-isobutyl-N-(2-(4-methylpiperazin-1-yl)phenyl)-2-oxo-1,2-dihydroquinoline-3-carboxamide]: the IC50 came out at 21.5 µM.
Consider `CC(C)Cn1c(=O)c(C(=O)Nc2ccccc2N2CCN(C)CC2)c(O)c2ccccc21` [SSTN-568_HCl salt, 4-hydroxy-1-isobutyl-N-(2-(4-methylpiperazin-1-yl)phenyl)-2-oxo-1,2-dihydroquinoline-3-carboxamide hydrochloride salt], for which the IC50 is 6.83 µM.
Consider `CC(C)Cn1c(=O)c(C(=O)Nc2ccc(N3CCN(C)CC3)cc2)c(O)c2ccccc21` [SSTN-569, 4-hydroxy-1-isobutyl-N-(4-(4-methylpiperazin-1-yl)phenyl)-2-oxo-1,2-dihydroquinoline-3-carboxamide], for which the half-maximal inhibitory concentration (IC50) is 8.42 µM.
Turning to `CC(C)Cn1c(=O)c(C(=O)Nc2ccc(N3CCN(C)CC3)cc2)c(O)c2ccccc21` [SSTN-569_HCl salt, 4-hydroxy-1-isobutyl-N-(4-(4-methylpiperazin-1-yl)phenyl)-2-oxo-1,2-dihydroquinoline-3-carboxamide hydrochloride salt], the IC50 is 4.93 µM.
In the case of `CC(C)Cn1c(=O)c(C(=O)Nc2ccc(F)cc2N2CCN(C)CC2)c(O)c2ccccc21` [SSTN-570, N-(4-fluoro-2-(4-methylpiperazin-1-yl)phenyl)-4-hydroxy-1-isobutyl-2-oxo-1,2-dihydroquinoline-3-carboxamide], the 50% inhibitory concentration (IC50) came to 6.5 µM.
As for `CC(C)Cn1c(=O)c(C(=O)Nc2ccc(F)cc2N2CCN(C)CC2)c(O)c2ccccc21` [SSTN-570_HCl salt, N-(4-fluoro-2-(4-methylpiperazin-1-yl)phenyl)-4-hydroxy-1-isobutyl-2-oxo-1,2-dihydroquinoline-3-carboxamide hydrochloride salt], the 50% inhibitory concentration (IC50) is 5.6 µM.
As to `CC(C)Cn1c(=O)c(C(=O)Nc2cc(F)ccc2N2CCN(C)CC2)c(O)c2ccccc21` [SSTN-571_HCl salt, N-(5-fluoro-2-(4-methylpiperazin-1-yl)phenyl)-4-hydroxy-1-isobutyl-2-oxo-1,2-dihydroquinoline-3-carboxamide hydrochloride salt], the IC50 is 7.87 µM.
As to `CC(C)Cn1c(=O)c(C(=O)Nc2ccc(N3CCN(C)CC3)c(F)c2)c(O)c2ccccc21` [SSTN-572, N-(3-fluoro-4-(4-methylpiperazin-1-yl)phenyl)-4-hydroxy-1-isobutyl-2-oxo-1,2-dihydroquinoline-3-carboxamide], the IC50 is 17.7 µM.
Regarding `CC(C)Cn1c(=O)c(C(=O)Nc2ccc(N3CCN(C)CC3)c(F)c2)c(O)c2ccccc21` [SSTN-572_HCl salt, N-(3-fluoro-4-(4-methylpiperazin-1-yl)phenyl)-4-hydroxy-1-isobutyl-2-oxo-1,2-dihydroquinoline-3-carboxamide hydrochloride salt], the IC50 amounted to 3.4 µM.
Same read-out and setting: the figure for `CC(C)Cn1c(=O)c(C(=O)Nc2cccc(F)c2)c(O)c2cc(N3CCN(C)CC3)ccc21` [SSTN-577, N-(3-fluorophenyl)-4-hydroxy-1-isobutyl-6-(4-methylpiperazin-1-yl)-2-oxo-1,2-dihydroquinoline-3-carboxamide] is 9.69 µM; for `CC(C)Cn1c(=O)c(C(=O)Nc2cccc(F)c2)c(O)c2cc(N3CCN(C)CC3)ccc21` [SSTN-577_HCl salt, N-(3-fluorophenyl)-4-hydroxy-1-isobutyl-6-(4-methylpiperazin-1-yl)-2-oxo-1,2-dihydroquinoline-3-carboxamide hydrochloride salt] it is 6.44 µM.
`Cc1cccnc1NC(=O)c1c(O)c2cc(N3CCN(C)CC3)ccc2n(CC(C)C)c1=O` [SSTN-579, 4-hydroxy-1-isobutyl-6-(4-methylpiperazin-1-yl)-N-(3-methylpyridin-2-yl)-2-oxo-1,2-dihydroquinoline-3-carboxamide]: the IC50 is 18.4 µM.
`Cc1cccnc1NC(=O)c1c(O)c2ccc(N3CCN(C)CC3)cc2n(CC(C)C)c1=O` [SSTN-580_HCl salt, 4-hydroxy-1-isobutyl-7-(4-methylpiperazin-1-yl)-N-(3-methylpyridin-2-yl)-2-oxo-1,2-dihydroquinoline-3-carboxamide hydrochloride salt]: the IC50 turned out to be 14 µM.
As to `Cc1cccnc1NC(=O)c1c(O)c2ccc(N3CCN(C)CC3)cc2n(CC(C)C)c1=O` [SSTN-580_TFA salt, 4-hydroxy-1-isobutyl-7-(4-methylpiperazin-1-yl)-N-(3-methylpyridin-2-yl)-2-oxo-1,2-dihydroquinoline-3-carboxamide TFA salt], the concentration for half-maximal inhibition (IC50) was 13.3 µM.
In the case of `CC(C)Cn1c(=O)c(C(=O)Nc2cccc(F)c2N2CCN(C)CC2)c(O)c2ccccc21` [SSTN-581_Formate salt, N-(3-fluoro-2-(4-methylpiperazin-1-yl)phenyl)-4-hydroxy-1-isobutyl-2-oxo-1,2-dihydroquinoline-3-carboxamide formate salt], the IC50 is 7.76 µM.
`CC(C)Cn1c(=O)c(C(=O)Nc2cccc(F)c2N2CCN(C)CC2)c(O)c2ccccc21` [SSTN-581_HCl salt, N-(3-fluoro-2-(4-methylpiperazin-1-yl)phenyl)-4-hydroxy-1-isobutyl-2-oxo-1,2-dihydroquinoline-3-carboxamide hydrochloride salt]: the IC50 was determined as 7.68 µM.
With `CC(C)Cn1c(=O)c(C(=O)Nc2cc(F)c(N3CCN(C)CC3)c(F)c2)c(O)c2ccccc21` [SSTN-582_HCl salt, N-(3,5-difluoro-4-(4-methylpiperazin-1-yl)phenyl)-4-hydroxy-1-isobutyl-2-oxo-1,2-dihydroquinoline-3-carboxamide hydrochloride salt], the 50% inhibitory concentration (IC50) was determined as 1.9 µM.
Take `CC(C)Cn1c(=O)c(C(=O)Nc2cc(F)cc(N3CCN(C)CC3)c2)c(O)c2ccccc21` [SSTN-583, N-(3-fluoro-5-(4-methylpiperazin-1-yl)phenyl)-4-hydroxy-1-isobutyl-2-oxo-1,2-dihydroquinoline-3-carboxamide]: the IC50 was found to be 8.13 µM.
Regarding `CC(C)Cn1c(=O)c(C(=O)Nc2cc(F)cc(N3CCN(C)CC3)c2)c(O)c2ccccc21` [SSTN-583_HCl salt, N-(3-fluoro-5-(4-methylpiperazin-1-yl)phenyl)-4-hydroxy-1-isobutyl-2-oxo-1,2-dihydroquinoline-3-carboxamide hydrochloride salt], the IC50 amounted to 6.33 µM.
